Among the data in patent US7109193B2, “Tricyclic diazepines tocolytic oxytocin receptor antagonists” (Wyeth, priority 2001, dated 2006) are inhibition values, retold here.

The test has as its target T1, human vasopressin V1a receptor subtype (Homo sapiens, UniProt P37288).
T1 construct: host or cells: CHO cells (pZeoSV vector for the Thibonnier line)
Put plainly: Vasopressin binding in Chinese Hamster Ovary cell membranes expressing human vasopressin V1a subtype receptors. As to conditions: 100 nM, CHO cell membranes, [3H]Manning ligand, values without parentheses. The essentials:
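Displacement of [3H]Manning ligand (8 nM working solution) from human V1a receptors in CHO cell membranes, 25–50 μg protein per well. Incubation ran 60 min at room temperature in 50 mM Tris-HCl pH 7.4 with protease inhibitors, followed by filtration and scintillation counting. Results are given as IC50 or percent inhibition.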

T1 sequence (P37288 whole entry): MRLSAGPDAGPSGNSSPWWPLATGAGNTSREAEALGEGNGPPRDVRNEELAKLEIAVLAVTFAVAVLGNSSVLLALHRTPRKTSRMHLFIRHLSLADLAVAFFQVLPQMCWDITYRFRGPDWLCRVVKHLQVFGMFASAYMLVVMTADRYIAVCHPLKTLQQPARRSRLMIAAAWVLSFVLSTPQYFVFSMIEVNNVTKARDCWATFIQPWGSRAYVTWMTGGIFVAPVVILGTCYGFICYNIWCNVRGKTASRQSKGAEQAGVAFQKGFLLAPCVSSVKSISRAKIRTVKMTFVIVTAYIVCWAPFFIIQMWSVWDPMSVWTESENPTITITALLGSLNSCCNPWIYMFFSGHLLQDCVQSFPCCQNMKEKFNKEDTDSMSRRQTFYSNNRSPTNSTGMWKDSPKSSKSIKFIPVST

For the molecule `COc1cccc(-c2cc(OC)c(C(=O)N3Cc4ccc(C(=O)N[C@@H](CCCCNC(=O)OC(C)(C)C)C(N)=O)n4Cc4ccccc43)cc2Cl)c1` [Example 302, tert-Butyl (5S)-6-amino-5-[({10-[(6-chloro-3,3′-dimethoxy[1,1′-biphenyl]-4-yl)carbonyl]-10,11-dihydro-5H-pyrrolo[2,1-c][1,4]benzodiazepin-3-yl}carbonyl)amino]-6-oxohexylcarbamate], the inhibition at 0.1 µM is -15%.

In the case of `COc1cc(-c2ccccc2C)c(Cl)cc1C(=O)N1Cc2ccc(C(=O)N[C@@H](CCCCNC(=O)OC(C)(C)C)C(N)=O)n2Cc2ccccc21` [Example 304, tert-Butyl (5S)-6-amino-5-[({10-[(6-chloro-3-methoxy-2′-methyl[1,1′-biphenyl]-4-yl)carbonyl]-10,11-dihydro-5H-pyrrolo[2,1-c][1,4]benzodiazepin-3-yl}carbonyl)amino]-6-oxohexylcarbamate], the inhibition at 0.1 µM was -7%.

A word on the inhibition: it is the drop in the measured response relative to a control, in per cent.
